Each compound was assayed against Recombinant human PDK1 enzyme (aa 52-556) (Homo sapiens (Human), UniProt O15530) (assay: PDK1 kinase assay). Details: in vitro kinase assay, His6-PDK1 (aa 52-556), PDKtide, P33-ATP.
Format: biochemical
Protocol: The activity of the compounds according to the invention on the kinase PDK1 which inhibits the signal transduction pathway is determined in an in vitro kinase assay with recombinantly prepared protein:
Recombinant human PDK1 enzyme (aa 52-556) linked at its N-terminal end to His6 is isolated from baculovirus-infected insect cells. Purified enzyme may be obtained for example from the University of Dundee, Scotland. The following components are combined in a well of a 96-well round-based dish (Greiner bio-one, No. 650101): • 15 μL of compound to be tested in varying concentrations (e.g. starting at 10 μM, and diluted in steps of 1:5) in APT buffer (50 mM Tris/Cl pH 7.5; 0.05% β-mercaptoethanol; 10 mM Mg-acetate; 0.0166% Tween 20; 3.33% DMSO) • 15 μL His6-PDK1 (aa 52-556) 3.33 ng/well) and PDKtide ([…]), synthesised by Pepceuticals Limited, Nottingham, United Kingdom; 25 μM final concentration); His6-PDK1 and PDKtide are together diluted accordingly in assay buffer (50 mM tris pH 7.5, 0.05% β-mercaptoethanol, 10 mM Mg-acetate); PDKtide is present in this mixture as an 83.3 μM solution. These 30 μl are routinely incubated for 30 min at RT. • 20 μL ATP solution (25 μM ATP with 1.0 μCi/well gamma-P33-ATP). The final concentration of Tween 20 is 0.005%.
The reaction is started by adding the ATP solution and the mixture is incubated for 90 min at RT. At the start of the reaction the dishes are shaken gently. The reaction is stopped by the addition of 50 μL/well of 500 mM phosphoric acid (H3PO4) and incubated for about 20 min at RT. The precipitate is transferred by harvesting onto filter plates (96-well microtitre filter plate: UniFilter GF/C; Perkin Elmer; No. 6005174), then washed 6 times with 50 mM H3PO4 and dried at 60° C. Then the plate is stuck down with sealing tape, 25 μL/well of scintillation solution (Microscint 0; Perkin Elmer; No. 6013611) are added and the amount of P33 precipitated is measured using the Wallac Betacounter. The measured data are evaluated using Graphpad Prism software.

Chain of Recombinant human PDK1 enzyme (aa 52-556) (O15530 52-556): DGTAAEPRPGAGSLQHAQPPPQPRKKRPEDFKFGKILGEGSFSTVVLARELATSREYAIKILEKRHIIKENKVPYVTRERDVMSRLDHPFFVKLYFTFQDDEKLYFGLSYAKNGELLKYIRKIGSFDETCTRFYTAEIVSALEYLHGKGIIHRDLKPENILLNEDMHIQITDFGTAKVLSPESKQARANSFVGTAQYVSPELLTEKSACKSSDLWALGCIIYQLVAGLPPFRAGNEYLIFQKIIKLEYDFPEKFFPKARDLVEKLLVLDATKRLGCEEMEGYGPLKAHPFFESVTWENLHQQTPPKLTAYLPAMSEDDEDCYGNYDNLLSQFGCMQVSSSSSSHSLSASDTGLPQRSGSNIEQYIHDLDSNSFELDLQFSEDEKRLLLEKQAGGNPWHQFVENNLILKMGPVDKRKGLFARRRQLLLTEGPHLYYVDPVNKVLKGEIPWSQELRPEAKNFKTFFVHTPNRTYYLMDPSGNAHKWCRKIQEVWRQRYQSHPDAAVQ

| IC50 [nM] | SMILES |
| --- | --- |
| 37 | COc1ncnc2ccc(C#CCNC(=O)c3cncn(Cc4ccc(F)c(F)c4)c3=O)cc12 [I-2] |
| 229 | CNc1ncnc2cc(Cl)c(C#CCNC(=O)c3cncn(Cc4ccc(F)c(F)c4)c3=O)cc12 [I-5] |
| 68 | CNc1ncnc2cc(F)c(C#CCNC(=O)c3c(C)n(C)n(Cc4ccc(F)c(F)c4)c3=O)cc12 [I-6] |
| 94 | CCOc1ncnc2ccc(C#CCNC(=O)c3cncn(Cc4ccc(F)c(F)c4)c3=O)cc12 [I-7] |
| 103 | CN(C)CCCOc1ncnc2ccc(C#CCNC(=O)c3cncn(Cc4ccc(F)c(F)c4)c3=O)cc12 [I-8] |
| 3 | O=C(NCC#Cc1ccc2ncc(NC3CCN(CCO)CC3)nc2c1)c1cncn(Cc2ccc(F)c(F)c2)c1=O [I-9] |
| 11 | CN(C)CCCNc1cnc2ccc(C#CCNC(=O)c3cncn(Cc4ccc(F)c(F)c4)c3=O)cc2n1 [I-10] |
| 88 | CN(C)CCN(C)c1cnc2ccc(C#CCNC(=O)c3cncn(Cc4ccc(F)c(F)c4)c3=O)cc2n1 [I-11] |
| 35 | CN(C)CCNc1cnc2ccc(C#CCNC(=O)c3cncn(Cc4ccc(F)c(F)c4)c3=O)cc2n1 [I-12] |
| 34 | CN(C)CCCN(C)c1cnc2ccc(C#CCNC(=O)c3cncn(Cc4ccc(F)c(F)c4)c3=O)cc2n1 [I-13] |
| 27 | CNc1cnc2ccc(C#CCNC(=O)c3cncn(Cc4ccc(F)c(F)c4)c3=O)cc2n1 [I-14] |
| 68 | CN(C)c1cnc2ccc(C#CCNC(=O)c3cncn(Cc4ccc(F)c(F)c4)c3=O)cc2n1 [I-15] |
| 33 | CN1CCC(Nc2cnc3ccc(C#CCNC(=O)c4cncn(Cc5ccc(F)c(F)c5)c4=O)cc3n2)C1 (stereo not drawn) [I-16] |
| 95 | CN(C)CCCOc1cnc2ccc(C#CCNC(=O)c3cncn(Cc4ccc(F)c(F)c4)c3=O)cc2n1 [I-17] |
| 17 | CN(C)CCSc1cnc2ccc(C#CCNC(=O)c3cncn(Cc4ccc(F)c(F)c4)c3=O)cc2n1 [I-18] |
| 4 | CN1CCC(Nc2cnc3ccc(C#CCNC(=O)c4cncn(Cc5ccc(F)c(F)c5)c4=O)cc3n2)CC1 [I-19] |
| 149 | CN1CCCC(Nc2cnc3ccc(C#CCNC(=O)c4cncn(Cc5ccc(F)c(F)c5)c4=O)cc3n2)C1 (stereo not drawn) [I-21] |
| 6 | CCN1CCC(Nc2cnc3ccc(C#CCNC(=O)c4cncn(Cc5ccc(F)c(F)c5)c4=O)cc3n2)CC1 [I-22] |
| 8 | O=C(NCC#Cc1ccc2ncc(NC3CCN(C4CC4)CC3)nc2c1)c1cncn(Cc2ccc(F)c(F)c2)c1=O [I-23] |
| 117 | CN1CCN(c2cnc3ccc(C#CCNC(=O)c4cncn(Cc5ccc(F)c(F)c5)c4=O)cc3n2)CC1 [I-24] |
| 42 | CN(C)CC(C)(C)CNc1cnc2ccc(C#CCNC(=O)c3cncn(Cc4ccc(F)c(F)c4)c3=O)cc2n1 [I-25] |

| IC50 [nM] | SMILES |
| --- | --- |
| 588 | O=C(NCC#Cc1ccc2ncc(NC3CCCCC3)nc2c1)c1cncn(Cc2ccc(F)c(F)c2)c1=O [I-26] |
| 3 | O=C(NCC#Cc1ccc2ncc(NC3CCNCC3)nc2c1)c1cncn(Cc2ccc(F)c(F)c2)c1=O [I-27] |
| 21 | CN1CCC(N(C)c2cnc3ccc(C#CCNC(=O)c4cncn(Cc5ccc(F)c(F)c5)c4=O)cc3n2)CC1 [I-28] |
| 41 | O=C(NCC#Cc1ccc2ncc(NC3CC(N4CCCC4)C3)nc2c1)c1cncn(Cc2ccc(F)c(F)c2)c1=O (stereo not drawn) [I-29] |
| 2 | C[C@H](c1ccc(F)c(F)c1)n1cccc(C(=O)NCC#Cc2ccc3ncc(NC4CCN(C)CC4)nc3c2)c1=O [I-30] |
| 8 | CN1CCC(Nc2cnc3ccc(C#CCNC(=O)c4cccn([C@H](CO)c5ccccc5)c4=O)cc3n2)CC1 [I-32] |
| 40 | N[C@H]1CC[C@@H](Nc2cnc3ccc(C#CCNC(=O)c4cncn(Cc5ccc(F)c(F)c5)c4=O)cc3n2)CC1 [I-33] |
| 3 | N[C@H]1CC[C@H](Nc2cnc3ccc(C#CCNC(=O)c4cncn(Cc5ccc(F)c(F)c5)c4=O)cc3n2)CC1 [I-34] |
| 21 | CC(C)Nc1cnc2ccc(C#CCNC(=O)c3cncn(Cc4ccc(F)c(F)c4)c3=O)cc2n1 [I-35] |
| 87 | CN1CCN(Nc2cnc3ccc(C#CCNC(=O)c4cncn(Cc5ccc(F)c(F)c5)c4=O)cc3n2)CC1 [I-36] |
| 5 | COCCN1CCC(Nc2cnc3ccc(C#CCNC(=O)c4cncn(Cc5ccc(F)c(F)c5)c4=O)cc3n2)CC1 [I-37] |
| 56 | CN1CCC(Oc2cnc3ccc(C#CCNC(=O)c4cncn(Cc5ccc(F)c(F)c5)c4=O)cc3n2)CC1 [I-38] |
| 21 | O=C(NCC#Cc1ccc2ncc(N[C@H]3CC[C@H](O)CC3)nc2c1)c1cncn(Cc2ccc(F)c(F)c2)c1=O [I-39] |
| 2 | O=C(NCC#Cc1ccc2ncc(N[C@H]3CC[C@H](N4CCOCC4)CC3)nc2c1)c1cncn(Cc2ccc(F)c(F)c2)c1=O [I-40] |
| 3 | CN1CCC(Nc2cnc3ccc(C#CCNC(=O)c4cccn([C@@H](CO)c5ccc(F)c(F)c5)c4=O)cc3n2)CC1 [I-41] |
| 3 | O=C(NCC#Cc1ccc2ncc(N[C@H]3CC[C@H](N4CCN(CC5CC5)CC4)CC3)nc2c1)c1cncn(Cc2ccc(F)c(F)c2)c1=O [I-42] |
| 5 | CN(C)[C@H]1CC[C@H](Nc2cnc3ccc(C#CCNC(=O)c4cncn(Cc5ccc(F)c(F)c5)c4=O)cc3n2)CC1 [I-43] |
| 11 | NC1CCC(Nc2cnc3ccc(C#CCNC(=O)c4cncn(Cc5ccc(F)c(F)c5)c4=O)cc3n2)C1 (stereo not drawn) [I-44] |
| 8 | CCN1CC[C@@H](Nc2cnc3ccc(C#CCNC(=O)c4cncn(Cc5ccc(F)c(F)c5)c4=O)cc3n2)[C@@H](F)C1 [I-45] |
| 7 | CCN1CCC(Nc2cnc3ccc(C#CCNC(=O)c4cccn(Cc5ccc(F)c(F)c5)c4=O)cc3n2)CC1 [I-46] |
| 4 | CCN1CC[C@H](Nc2cnc3ccc(C#CCNC(=O)c4cncn(Cc5ccc(F)c(F)c5)c4=O)cc3n2)[C@H](F)C1 [I-47] |

| IC50 [nM] | SMILES |
| --- | --- |
| 3 | COCCN1CCC(Nc2cnc3ccc(C#CCNC(=O)c4cccn([C@@H](CO)c5ccc(F)c(F)c5)c4=O)cc3n2)CC1 [I-48] |
| 9 | COCCN1CCC(Nc2cnc3ccc(C#CCNC(=O)c4cccn(Cc5ccc(F)c(F)c5)c4=O)cc3n2)CC1 [I-49] |
| 1 | CCN1CCC(Nc2cnc3ccc(C#CCNC(=O)c4cccn([C@@H](CO)c5ccc(F)c(F)c5)c4=O)cc3n2)CC1 [I-50] |
| 4 | COCCN1CCC(Nc2cnc3ccc(C#CCNC(=O)c4cccn([C@@H](C)c5ccc(F)c(F)c5)c4=O)cc3n2)CC1 [I-52] |
| 8 | COCCN1CCC(Nc2cnc3ccc(C#CCNC(=O)c4ccnn(Cc5ccc(F)c(F)c5)c4=O)cc3n2)CC1 [I-53] |
| 8 | O=C(NCC#Cc1ccc2ncc(NC3CCN(C4COC4)CC3)nc2c1)c1ccnn(Cc2ccc(F)c(F)c2)c1=O [I-54] |
| 4 | COCCN1CCC(Nc2cnc3ccc(C#CCNC(=O)c4cccn([C@H](CO)c5cccc(F)c5)c4=O)cc3n2)CC1 [I-55] |
| 3 | O=C(NCC#Cc1ccc2ncc(NC3CCN(C4COC4)CC3)nc2c1)c1cncn(Cc2ccc(F)c(F)c2)c1=O [I-56] |
| 9 | O=C(NCC#Cc1ccc2ncc(NC3CCN(C4COC4)CC3)nc2c1)c1cccn(Cc2ccc(F)c(F)c2)c1=O [I-57] |
| 8 | C[C@@H](c1ccc(F)c(F)c1)n1cccc(C(=O)NCC#Cc2ccc3ncc(NC4CCN(C5COC5)CC4)nc3c2)c1=O [I-58] |
| 5 | O=C(NCC#Cc1ccc2ncc(N[C@H]3CC[C@H](N4CCOCC4)CC3)nc2c1)c1cccn([C@H](CO)c2ccccc2)c1=O [I-59] |
| 7 | O=C(NCC#Cc1ccc2ncc(N[C@H]3CC[C@H](N4CCOCC4)CC3)nc2c1)c1ccnn(Cc2ccc(F)c(F)c2)c1=O [I-60] |
| 2 | O=C(NCC#Cc1ccc2ncc(N[C@H]3CC[C@H](N4CCN(CC5CC5)CC4)CC3)nc2c1)c1cccn([C@H](CO)c2cccc(F)c2)c1=O [I-61] |
| 2 | O=C(NCC#Cc1ccc2ncc(N[C@H]3CC[C@H](N4CCN(CC5CC5)CC4)CC3)nc2c1)c1ccnn(Cc2ccc(F)c(F)c2)c1=O [I-62] |
| 4 | O=C(NCC#Cc1ccc2ncc(NC3CCN(C4COC4)CC3)nc2c1)c1cccn([C@H](CO)c2cccc(F)c2)c1=O [I-63] |
| 5 | O=C(NCC#Cc1ccc2ncc(N[C@H]3CC[C@H](N4CCOCC4)CC3)nc2c1)c1cccn([C@H](CO)c2cccc(F)c2)c1=O [I-64] |
| 654 | O=C(NCC#Cc1ccc2ncc(CC3CCNCC3)nc2c1)c1cncn(Cc2ccc(F)c(F)c2)c1=O [I-66] |
| 940 | CN1CCC(Cc2cnc3ccc(C#CCNC(=O)c4cncn(Cc5ccc(F)c(F)c5)c4=O)cc3n2)CC1 [I-67] |
| 233 | CC(C)=Cc1cnc2ccc(C#CCNC(=O)c3cncn(Cc4ccc(F)c(F)c4)c3=O)cc2n1 [I-68] |

| SMILES | IC50 [nM] |
| --- | --- |
| CNc1ncnc2ccc(C#CCNC(=O)c3cccn(Cc4ccc(F)c(F)c4)c3=O)c(C)c12 [I-3] | 8 |
| CN1CCC(Nc2cnc3ccc(C#CCNC(=O)c4cccn(Cc5ccc(F)c(F)c5)c4=O)cc3n2)CC1 [I-31] | 5 |
